How the values were obtained:
BTS49 = assay: Triple negative breast cancer cell line panel, 96 hours; type: cell-based, human; settings: BTS49, 96 hours
Description: (§1) A panel of triple negative cancer cell lines (TNBC) were screened to evaluate whether a subset of TNBC could potentially benefit from treatment with compound 1 as a single agent.

HCC1143 = assay: as above; type: cell-based, human; settings: HCC1143, 96 hours
Description: as §1

HCC1806 = assay: as above; type: cell-based, human; settings: HCC1806, 96 hours
Description: as §1

HCC38 = assay: as above; type: cell-based, human; settings: HCC38, 96 hours
Description: as §1

cancer lines = assay: Cell growth assays with uridine supplemented into the medium (uridine rescue); type: cell-based
Protocol: To confirm that the effects of Compound 1 in impairing cell growth/viability were due to specific inhibition of DHODH, cell growth assays were performed with varying amounts of uridine supplemented into the medium.

MOLP-2 = assay: Heme line growth assay (Cell-Titer Glo), 4-day and extended 7-day; type: cell-based, human; set-up: key to Sensitivity 7-day: *: insensitive; **: intermediate; ***: sensitive
Protocol: (§2) A follow-up screen was performed on an expanded panel of cell lines of heme lineage in a 4-day growth assay. Growth was assessed by Cell-Titer Glo measurements on day 0 and day 4.
(§3) Compound 1, of which diffuse large B cell lymphoma (DLBCL) lines were particularly sensitive (8/11 or 73%). A subset of the heme lines that were of intermediate sensitivity (defined as >50% and <75% growth rate inhibition) or insensitive (defined as <50% growth rate inhibition) to compound 1 in this follow-up screen were subjected to extended growth assays to evaluate if increased treatment time modulated their sensitivity profile. Specifically, these heme lines were pretreated with Compound 1 for three days at the indicated concentrations and then re-plated for a standard 4-day growth assay in fresh media/drug.

REC-1 = assay: as above; type: cell-based, human; set-up: key to Sensitivity 7-day: *: insensitive; **: intermediate; ***: sensitive
Protocol: as §2, §3

BDCM = assay: as above; type: cell-based, human; set-up: key to Sensitivity 7-day: *: insensitive; **: intermediate; ***: sensitive
Protocol: as §2, §3

Ramos cells = assay: Ramos proliferation assay (XTT); type: cell-based; settings: Homo sapiens, 72 hrs
Description: Cell proliferation assay is a sensitive method for quantification of viable cells in cytotoxicity or proliferation assay. The XTT (2,3-bis[2-Methoxy-4-nitro-5-sulfophenyl]-2 H-tetrazolium-5-carboxyanilide inner salt) system is a means of measuring the activity of living cells via mitochondrial dehydrogenases. Mitochondrial dehydrogenases of viable cells cleave the tetrazolium ring of XTT, yielding orange formazon crystals which are soluble in aqueous solutions. The XTT solution is potentiated by the addition of an electron coupling agent, phenazine methosulphate (PMS) to the reaction. The resulting orange colour is spectrophotometrically measured at 450 nm. An increase or decrease in cell numbers results in a concomitant change in the amount of formazon formed, indicating the degree of cytotoxicity caused by the test material.
Dissolve 17.7 g IMDM (Iscove's Modified Dulbecco's Medium) powder, 1.5 g sodium bicarbonate pH 7.2-7.4 in 1 L MiliQ water, add 1% Pencilin/ Streptomycin and 10% FBS.
Dissolve 10.6 g Ham's F12 powder, 1.5 g sodium bicarbonate pH 7.2-7.4 in 1 L MiliQ water, add 1% Penicillin/Streptomycin. DMSO used as vehicle.
Ramos cells were re-suspended to a density of 1×10^5 cells/ ml in complete IMDM medium. 95 μL of this cell suspension was added to the 96-well plate to seed ˜10,000 cells per well. The plates were incubated at 37° C. under a humidified atmosphere of 5% CO2 for ˜1 hour before compound addition.
Test compounds (Refer to Table 1) were dissolved in 100% DMSO to generate a 2/6/10/20 mM stock solution. A 200× concentration of the required final concentrations was prepared in DMSO. 10 μL of each concentration (200×) was then diluted in 90 μL of serum-free Ham's F12 medium to get an intermediate concentration of 20× in medium. The DMSO concentration in this step is 10% (Intermediate dilution). 5 μL of each intermediate dilution was then added in triplicates in the previously seeded 96-well plate. The final DMSO concentration was 0.5% in the experimental wells. Cells treated with 0.5% DMSO served as positive control. 100 μL, of complete IMDM medium served as media blank for data analysis. 200 μL, of 1× PBS was added in all corner wells of the assay plate. Plates were then incubated for 72 hrs in an incubator with 5% CO2 at 37° C.
On termination day, 100 μl of XTT solution (1 mg/ml XTT supplemented with 25 μM PMS in Ham's F12 medium) was added to each well. Plates were incubated for 2 hrs. The amount of formazon produced was determined by reading the absorbance of the plate using VICTOR X5 multilabel plate reader at wavelength of 450 nm. The IC50 values were determined as concentrations that reduced cell viability by 50% and the curve was plotted with GraphPad Prism 6.0.
Percent (%) Inhibition was calculated by normalizing DMSO control values to 100% using the formula: % Inhibition=[…](Abs450test compound−blank)/(Abs450positive control−blank)*100
Test compound contains cells, test compound, IMDM medium and 0.5% DMSO
Positive control contains cells, IMDM medium and 0.5% DMSO
Blank contains IMDM medium

DLBCL_1 tumor = assay: Patient-derived DLBCL xenograft model DLBCL_1 (triple hit); type: in vivo, CB17 SCID mice; settings: 100 mg/kg BID PO
Protocol: A screen was next performed using a small number of mice/group to assess efficacy of Compound 1 in AML and DLBCL patient-derived xenograft models. Tumor-bearing mice (n=3/group) were treated with vehicle or Compound 1 at 100 mg/kg BID PO.

OCILY18 = assay: Double-hit DLBCL 96-hr growth assay; type: cell-based, human
Protocol: (§4) FIG. 8 is a curve showing the relative growth rate of OCILY18, SC-1 and CARNAVAL double hit diffuse large B cell lymphoma (DLBCL) cell lines treated with various concentrations of Compound 1 for 96 hours.

CARNAVAL = assay: Double-hit DLBCL 96-hr growth assay; type: cell-based, human
Protocol: as §4

SC-1 = assay: Double-hit DLBCL 96-hr growth assay; type: cell-based, human; settings: SC-1, double-hit DLBCL
Protocol: as §4

Cc1ccccc1-c1ccc(-c2cc(C(=O)O)c3c(c2)nnn3C)cc1 [Compound 1, 1-methyl-5-(2′-methyl-[1,1′-biphenyl]-4-yl)-1H-benzo[d][1,2,3]triazole-7-carboxylic Acid]
Sensitivity (BTS49): insensitive
Sensitivity (HCC1143): insensitive
Sensitivity (HCC1806): insensitive
Sensitivity (HCC38): insensitive
Rescue of growth effects by exogenous uridine (cancer lines; supraphysiologic uridine (25 μM and 100 μM), up to 10 μM of compound): completely rescued
Rescue of growth effects by exogenous uridine (cancer lines; uridine close to physiologic (5 μM)): partially rescued
Sensitivity 7-day (MOLP-2; MOLP-2, 3 days pretreatment then 4-day growth assay): ***
Sensitivity 4-day (MOLP-2; MOLP-2, multiple myeloma, 4-day growth assay): ** (intermediate)
Sensitivity 7-day (REC-1; REC-1, 3 days pretreatment then 4-day growth assay): ***
Sensitivity 4-day (REC-1; REC-1, mantle cell lymphoma, 4-day growth assay): * (insensitive)
Sensitivity 7-day (BDCM; 3 days pretreatment then 4-day growth assay): ***
Sensitivity 4-day (BDCM; acute myeloid leukemia, 4-day growth assay): ** (intermediate)
inhibition at 30 µM (Ramos cells; 30 μM, read-out: Maximum % Inhibition at 30 μM): 107%
IC50 (Ramos cells; XTT): 49 nM
TGI (DLBCL_1 tumor): > 60%
Sensitivity to growth inhibition (OCILY18): highly sensitive
Sensitivity to growth inhibition (CARNAVAL): highly sensitive
Sensitivity to growth inhibition (SC-1): highly sensitive
